Data: PMC5625810, “Chiglitazar Preferentially Regulates Gene Expression via Configuration-Restricted Binding and Phosphorylation Inhibition of PPARγ” (PPAR Research, 2017)

Biological target: T1, PPARγ (Homo sapiens, UniProt P37231)
T1 construct: gene PPARG
T1 sequence (P37231 231-505 limits assumed): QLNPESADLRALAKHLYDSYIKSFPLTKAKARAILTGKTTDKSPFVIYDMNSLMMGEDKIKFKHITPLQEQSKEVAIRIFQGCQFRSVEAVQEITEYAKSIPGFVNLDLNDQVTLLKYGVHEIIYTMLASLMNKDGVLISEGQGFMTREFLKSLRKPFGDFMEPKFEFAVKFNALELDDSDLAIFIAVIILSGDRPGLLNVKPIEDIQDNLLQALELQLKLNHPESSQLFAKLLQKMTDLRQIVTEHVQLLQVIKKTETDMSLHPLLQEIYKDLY
Assay: AlphaScreen cofactor peptide recruitment on purified LBD ([…]); cell reporter AC50 […] separately
Format: biochemical

CN(CCOc1ccc(CC2SC(=O)NC2=O)cc1)c1ccccn1 (stereo not shown) [Ros, rosiglitazone]
AlphaScreen cofactor peptide recruitment on purified LBD (2 μM); cell reporter A: The inhibition was partially and differentially restored upon additions of the three ligands
